In US10421715B2, “Pleuromutilin derivative having 2-amino phenyl mercaptan side chain as well as preparation method and application thereof” (SOUTH CHINA AGRICULTURAL UNIVERSITY, priority 2016, dated 2019):
Values after ≈ are worked out from the molar mass of the structure shown. Read-outs that look alike come from different tables or passages of the source.

Experiments:
Test in all cases: In-vitro bacteriostatic experiment, two-fold agar dilution MIC
Assay type in all cases: cell-based
[1] = system: methicillin-resistant staphylococcus ATCC43300; conditions: for MIC: read-out: MIC MRSA ATCC43300
Experimental: (§1) Minimum inhibitory concentrations (MIC) of a series of compounds obtained in the disclosure were measured by using a two-fold agar dilution method. An experimental control drug selected valnemulin, and valnemulin belongs to pleuromutilin antibiotics and is the most widely applied veterinary antibiotic in the pleuromutilin antibiotics at present. By using a multi-point inoculator, bacteria solution was inoculated into a culture dish containing drugs having different concentrations at a bacteria inoculating amount of 10^6 CFU/ml. A result was observed after incubation for 24 hours at 37° C., and the concentration of a compound in a culture dish without bacteria served as the minimum inhibitory concentration (MIC) of this compound.
(§2) Strains used in the experiment were E. Coli ATCC25922, Staphylococcus aureus ATCC29213, methicillin-resistant staphylococcus ATCC43300 and mycoplasma gallisepticum S6.
(§3) 25.6 mg of synthesized target compound was precisely weighed to be placed in 10 mL of volumetric flask and dissolved with a small amount of N,N-dimethylformamide and then a volume was metered with N,N-dimethylformamide to 10 mL, so as to prepare 2560 μg/mL stock solution. In addition, 25.6 mg of pleuromutilin, tiamulin, valnemulin and retapamulin were respectively and precisely weighed to be placed in 10 ml of volumetric flask, and a volume was metered with N,N-dimethylformamide to 10 mL, so as to prepare 2560 μg/mL control stock solution.
(§4) The control stock solution was diluted in a culture dish with a doubling dilution method, each culture dish contained 1 ml of medicine liquid, the medicine liquid is diluted to 20 ml with molten MH agar, so that final concentrations of subject compounds in a series of culture dishes were respectively 64, 32, 16, 8, 4, 2, 1, 0.5, 0.25, 0.125 and 0.0625 μg/ml.

[2] = system: E. Coli ATCC25922; conditions: for MIC: Escherichia coli, read-out: MIC E. coli ATCC25922
Experimental: as §1, §2, §3, §4

[3] = system: Staphylococcus aureus ATCC29213; conditions: for MIC: Staphylococcus aureus, read-out: MIC S. aureus ATCC29213
Experimental: as §1, §2, §3, §4

[4] = system: mycoplasma gallisepticum S6; conditions: for MIC: Mycoplasmoides gallisepticum, read-out: MIC S6
Experimental: as §1, §2, §3, §4

[5] = agar dilution, 10^6 CFU/ml, 24 hours at 37° C.
[6] = ATCC25922, agar dilution, 10^6 CFU/ml, 24 hours at 37° C.
[7] = ATCC29213, agar dilution, 10^6 CFU/ml, 24 hours at 37° C.
[8] = mycoplasma gallisepticum S6, agar dilution, 10^6 CFU/ml, 24 hours at 37° C.

SMILES	MIC MRSA ATCC43300 [1, 5] [µg/mL]	MIC E. coli ATCC25922 [2, 5] [µg/mL]	MIC S. aureus ATCC29213 [3, 5] [µg/mL]	MIC S6 [4, 8] [µg/mL]	other results
C=C[C@]1(C)C[C@@H](OC(=O)CSc2ccccc2N)[C@]2(C)[C@H](C)CC[C@]3(CCC(=O)[C@H]32)[C@@H](C)[C@@H]1O [Compound 13]	–	–	–	–	MIC [1, 5]: 0.0156 µg/mL (≈ 0.0321 µM); antibacterial activity on methicillin-resistant staphylococcus (in words) ([1]; comparison with control drugs): obviously superior to that of valnemulin and retapamulin; MIC [2, 6]: > 64 µg/mL; MIC [3, 7]: 0.0156 µg/mL (≈ 0.0321 µM); antibacterial activity on staphylococcus (in words) ([3]; comparison with control drugs): obviously superior to that of valnemulin and retapamulin; MIC [4, 8]: 0.0156 µg/mL (≈ 0.0321 µM)
C=C[C@]1(C)C[C@@H](OC(=O)CSc2ccccc2NC(=O)c2ccccc2Cl)[C@]2(C)[C@H](C)CC[C@]3(CCC(=O)[C@H]32)[C@@H](C)[C@@H]1O [Compound 7]	0.5 (≈ 0.801 µM)	>64	0.5 (≈ 0.801 µM)	0.25 (≈ 0.4 µM)	–
C=CC1(C)CC(OC(=O)CSc2ccccc2NC(=O)c2cccc(C)c2)C2(C)C(C)CCC3(CCC(=O)C32)C(C)C1O (centres unmarked) [Compound 2, 22-O-[2-(3-methylbenzamnido)phenyl] thioacetyl valnemulin]	0.5 (≈ 0.828 µM)	>64	1 (≈ 1.66 µM)	0.25 (≈ 0.414 µM)	–
C=CC1(C)CC(OC(=O)CSc2ccccc2NC(=O)c2cccc(F)c2)C2(C)C(C)CCC3(CCC(=O)C32)C(C)C1O (centres unmarked) [Compound 5, 22-O-[2-(3-fluorobenzamido)phenyl] thioacetyl valnemulin]	0.125 (≈ 0.206 µM)	>64	0.125 (≈ 0.206 µM)	0.125 (≈ 0.206 µM)	–
C=C[C@]1(C)C[C@@H](OC(=O)CSc2ccccc2NC(=O)c2ccccc2C)[C@]2(C)[C@H](C)CC[C@]3(CCC(=O)[C@H]32)[C@@H](C)[C@@H]1O [Compound 1]	0.25 (≈ 0.414 µM)	>64	0.25 (≈ 0.414 µM)	0.125 (≈ 0.207 µM)	–
C=CC1(C)CC(OC(=O)CSc2ccccc2NC(=O)c2cccc(Cl)c2)C2(C)C(C)CCC3(CCC(=O)C32)C(C)C1O (centres unmarked) [Compound 8, 22-O-[2-(3-chlorobenzamido)phenyl] thioacetyl valnemulin]	0.25 (≈ 0.4 µM)	>64	0.25 (≈ 0.4 µM)	0.125 (≈ 0.2 µM)	–
C=C[C@]1(C)C[C@@H](OC(=O)CS[C@@H]2C[C@H]3CC[C@@H](C2)N3C)[C@]2(C)[C@H](C)CC[C@]3(CCC(=O)[C@H]32)[C@@H](C)[C@@H]1O [Retapamulin, reference compound]	–	–	–	–	MIC ([1]; 24 h): 0.0625 µg/mL (≈ 0.121 µM); MIC ([3]; ATCC29213, 24 h): 0.0625 µg/mL (≈ 0.121 µM)
C=CC1(C)CC(OC(=O)CSc2ccccc2NC(=O)c2ccccc2OC)C2(C)C(C)CCC3(CCC(=O)C32)C(C)C1O (centres unmarked) [Compound 10, 22-O-[2-(2-methoxybenzamido)phenyl] thioacetyl valnemulin]	0.5 (≈ 0.807 µM)	>64	1 (≈ 1.61 µM)	0.25 (≈ 0.403 µM)	–
C=C[C@]1(C)C[C@@H](OC(=O)CO)[C@]2(C)[C@H](C)CC[C@]3(CCC(=O)[C@H]32)[C@@H](C)[C@@H]1O [Pleuromutilin]	–	–	–	–	MIC [1, 5]: 0.5 µg/mL (≈ 1.32 µM); MIC [2, 6]: > 64 µg/mL; MIC [3, 7]: 1 µg/mL (≈ 2.64 µM); MIC [4, 8]: 0.0625 µg/mL (≈ 0.165 µM)
C=C[C@]1(C)C[C@@H](OC(=O)CSc2ccccc2NC(=O)c2ccc(Cl)cc2)[C@]2(C)[C@H](C)CC[C@]3(CCC(=O)[C@H]32)[C@@H](C)[C@@H]1O [Compound 9]	0.5 (≈ 0.801 µM)	>64	0.5 (≈ 0.801 µM)	0.25 (≈ 0.4 µM)	–
C=C[C@]1(C)C[C@@H](OC(=O)CSc2ccccc2NC(=O)c2ccc(OC)cc2)[C@]2(C)[C@H](C)CC[C@]3(CCC(=O)[C@H]32)[C@@H](C)[C@@H]1O [Compound 12]	1 (≈ 1.61 µM)	>64	1 (≈ 1.61 µM)	0.5 (≈ 0.807 µM)	–
C=CC1(C)CC(OC(=O)CSc2ccccc2NC(=O)c2cccc(OC)c2)C2(C)C(C)CCC3(CCC(=O)C32)C(C)C1O (centres unmarked) [Compound 11, 22-O-[2-(3-methoxybenzamido)phenyl] thioacetyl valnemulin]	1 (≈ 1.61 µM)	>64	1 (≈ 1.61 µM)	0.25 (≈ 0.403 µM)	–
C=CC1(C)CC(OC(=O)CSc2ccccc2NC(=O)c2ccc(F)cc2)C2(C)C(C)CCC3(CCC(=O)C32)C(C)C1O (centres unmarked) [Compound 6, 22-O-[2-(4-fluorobenzamido)phenyl] thioacetyl valnemulin]	1 (≈ 1.65 µM)	>64	1 (≈ 1.65 µM)	0.5 (≈ 0.823 µM)	–
C=C[C@]1(C)C[C@@H](OC(=O)CSCCN(CC)CC)[C@]2(C)[C@H](C)CC[C@]3(CCC(=O)[C@H]32)[C@@H](C)[C@@H]1O [Tiamulin, reference compound]	–	–	–	–	MIC [1, 5]: 0.5 µg/mL (≈ 1.01 µM); MIC [2, 6]: > 64 µg/mL; MIC [3, 7]: 0.5 µg/mL (≈ 1.01 µM); MIC [4, 8]: 0.0156 µg/mL (≈ 0.0316 µM)
C=CC1(C)CC(OC(=O)CSc2ccccc2NC(=O)c2ccccc2F)C2(C)C(C)CCC3(CCC(=O)C32)C(C)C1O (centres unmarked) [Compound 4]	0.5 (≈ 0.823 µM)	>64	0.5 (≈ 0.823 µM)	0.25 (≈ 0.411 µM)	–
C=CC1(C)CC(OC(=O)CSc2ccccc2NC(=O)c2ccc(C)cc2)C2(C)C(C)CCC3(CCC(=O)C32)C(C)C1O (centres unmarked) [Compound 3, 22-O-[2-(4-methylbenzamido)phenyl] thioacetyl valnemulin]	0.5 (≈ 0.828 µM)	>64	0.5 (≈ 0.828 µM)	0.25 (≈ 0.414 µM)	–
C=C[C@]1(C)C[C@@H](OC(=O)CSC(C)(C)CNC(=O)[C@H](N)C(C)C)[C@]2(C)[C@H](C)CC[C@]3(CCC(=O)[C@H]32)[C@@H](C)[C@@H]1O [Valnemulin, reference compound]	–	–	–	–	MIC ([1]; 24 h): 0.0625 µg/mL (≈ 0.111 µM); MIC ([2]; ATCC25922, 24 h): 32 µg/mL (≈ 56.7 µM); MIC ([3]; ATCC29213, 24 h): 0.0625 µg/mL (≈ 0.111 µM); MIC ([4]; S6, 24 h): 0.0039 µg/mL (≈ 0.0069 µM)
